Data: US20190254285A1, “SODIUM PHOSPHITE COMBINATIONS” (priority 2016, published 2019)

How the values were obtained:
Format in all cases: in vivo
Botrytis cinerea = Botrytis cinerea rot on wounded apple and banana fruit; design: key: Different results are indicated by different letters; Different results are indicated by different letters; Different results are indicated by different letters; Different results are indicated by different letters; Different results are indicated by different letters
Description: Tested fruit: apple (cv Elstar) and a banana (cv Cavendish) from organic origin/SKAL certified. SKAL is a semi-governmental Dutch organization that controls organic production in the Netherlands.
Used pathogen: Botrytis cinerea spore-suspension containing ˜3×10^5 propagules (spores)/ml.
Application: Fruit peel was damaged with a cork borer, depth ˜0.5 cm into the fruit, 2 wounds per apple fruit; 2 wounds per banana fruit. 30 microliters of a freshly prepared spore suspension of B. cinerea (estimated 3×10^5 spores/ml) were applied by pipette onto each wound. Subsequently, the spore-suspension was allowed to air-dry for 3 hours. 50 microliters of fungicide suspensions 1-6 were applied by pipette to each wound.
All fruits were kept at room temperature (20° C.).
Replicates: All treatments (1-6) were performed on 6 individual apples and 6 individual bananas with 2 wounds each resulting in 12 wounds per fruit per treatment. The recorded observed antifungal activity is the reduction (in percentages) of the average surface of the rot as observed in the 12 wounds compared to the rot surface of the untreated control.
Observation: All wounds were inspected daily for visual symptoms of fruit rot and/or fungus growth. Rot surface was determined after 5 and 7 days (see Tables 1, 2 and 3). The recorded observed antifungal activity is the surface of the rot.

black sigatoka [1] = test: Black sigatoka on banana plants, single leaf test, leaf 3 curative, DITHANE 60 SC; conditions: for Area infected (%) / Efficacy: 8 DAA, leaf 3 curative, DITHANE 60 SC 5 liter/ha; for Area infected (%): phosphites 2 mol/l at 3 liter/ha; for Efficacy: vs untreated control
Method: (§1) A single leaf test was established in a research station located in the community of “Anita Grande,” county of Jimenez, province of Limon, Costa Rica (latitude 10°15′14.15″N, longitude 83°44′20.29″W).
(§2) Every treatment was established in individual plants. Treatments were applied to leaf number 1 to determine their effect as preventive. Leaf position is counted from top to bottom, whereby leaf number 1 is closest to the unfolded leaf. Treatments were distributed systematically to facilitate their location in the field.
(§3) Product applications were done in an area of 10×10 cm, with a special equipment designed to simulate aerial applications. Application was done at 35 pound-force per square inch. Since weather conditions were highly conducive for disease development, and inoculum density was very high, no artificial inoculation was done. All treatments were applied to the same position on the leaf to minimize experimental error. All treatments were applied at the equivalent volume of 25 L ha^−1, as it is done commercially. A total of 3 sprays were applied, application A at Day 0, application B at 7 days after application A (DAA), and application C at day 13 DAA. VOLLEY® 88 OL was sprayed at 5.525 L/ha and the different phosphites were applied at the same PO3 concentration of 2 mol/l and were sprayed at 3 liter/ha.
(§4) For the evaluation of the efficacy, the diseased area that was affected in the 10×10 cm leaf area was recorded. Evaluations were done 23, 30 and 36 DAA. Efficacy was calculated by comparing the treatments against the untreated control.
(§5) Similar to Example 8, with the following differences: DITHANE® 60 SC (Dow AgroSciences) at a rate of 5 liter/ha was applied instead of […] and only one measurement was performed at 23 days after application A (DAA).
(§6) Similar to Example 9, with the following differences: Treatments and measurements were applied to leaf number 3, to determine their effect as curative, and one measurement was performed at 8 days after application A (DAA).

powdery mildew = test: Powdery mildew on cucumber leaf disks; conditions: for Surface area (%): phosphite 16 mM, sulfur 0.1 g/L
Method: Leaves were taken from 5 to 6 week old tomato plant. Per treatment 5 ml was sprayed over 5 leaves and dried for 1 hour. Circular disks were punched from the treated leaves with a diameter of 11 mm. 5 disks per treatment were put on water agar in 90 mm ø petri dishes. Water agar was made by sterilizing agar-agar (5 g/L, Carl Roth), benzimidazole (30 mg/L, Sigma-Aldrich) and antibiotic tetracycline hydrochloride (25 mg/L, Carl Roth) in water. Disks were infected by brushing powdery mildew spores from an infected leave until disks were visually covered by spores. After 10 days the surface area covered by powdery mildew was measured by putting pictures of the disks through an online image analyzer. Efficacy was calculated by comparing the treatments against the untreated control. Replicates: 20 disks were used per treatment.
All phosphite concentrations were tested at a concentration of 16 mM of phosphite.
Similar to Example 7 with the following differences: Leaf disk were taken from the dicotyledon leaves when the cucumber was around 2 weeks old. 5 disks per treatment were put on water agar in 90 mm ø petri dishes, with a total of 10 leaf disks per treatment. The formulated sulfur was tested at a concentration of 0.1 g sulfur/L. Assessment was done after 14 and 21 days after infection.

black sigatoka [2] = test: Black sigatoka on banana plants, single leaf test, leaf 3 curative, Bravo 72 SC; conditions: for Area infected (%) / Efficacy: 16 DAA, leaf 3 curative, Bravo 72 SC 0.875 liter/ha, phosphites 3 L/ha; for Efficacy: vs untreated control
Method: as §1, §2, §3, §4, §6
Similar to Example 10, with the following differences: Bravo 72 SC (chlorothalonil; Syngenta) was applied at 0.875 liter/ha instead of DITHANE® 60 SC and the phosphites were spayed at a rate of 3 L/ha. One measurement was done at 16 DAA.

black sigatoka [3] = test: Black sigatoka on banana plants, single leaf test, leaf 1 preventive, DITHANE 60 SC; conditions: for Area infected (%) / Efficacy: 23 DAA, leaf 1 preventive, DITHANE 60 SC 5 liter/ha; for Area infected (%): phosphites 2 mol/l at 3 liter/ha; for Efficacy: vs untreated control
Method: as §1, §2, §3, §4, §5

black sigatoka [4] = test: Black sigatoka on banana plants, single leaf test, leaf 1 preventive, VOLLEY 88 OL; conditions: for Area infected (%) / Efficacy: VOLLEY 88 OL 5.525 L/ha, phosphites 2 mol/l at 3 liter/ha; for Efficacy: vs untreated control
Method: as §1, §2, §3
Mixture of products was done with an electric stirrer (DEWALT® General Purpose, model DW9107), equipped with a standard propel.
as §4

[5] = Table 1, phosphonate Concentration 1, mandipropamid control
[6] = Table 1, phosphonate Concentration 2, mandipropamid control
[7] = Table 1, phosphonate Concentration 3, mandipropamid control
[8] = Table 2, phosphonate Concentration 2, mefenoxam control

Compound	Effect on fungicidal attack of Botrytis on apple and banana (Botrytis cinerea; [5])	Effect on fungicidal attack of Botrytis on apple and banana (Botrytis cinerea; [6])	Effect on fungicidal attack of Botrytis on apple and banana (Botrytis cinerea; [7])	Effect on fungicidal attack of Botrytis on apple and banana (Botrytis cinerea; [8])	Area infected (%) (black sigatoka [1])	Efficacy (black sigatoka [1])	Surface area (%) (powdery mildew; Day 14 after infection)	Surface area (%) (powdery mildew; Day 21 after infection)	Area infected (%) (black sigatoka [2])	Efficacy (black sigatoka [2])	Area infected (%) (black sigatoka [3])	Efficacy (black sigatoka [3])	Area infected (%) (black sigatoka [4]; 23 DAA)	Efficacy (black sigatoka [4]; 23 DAA)	Area infected (%) (black sigatoka [4]; 30 DAA)	Efficacy (black sigatoka [4]; 30 DAA)	Area infected (%) (black sigatoka [4]; 36 DAA)	Efficacy (black sigatoka [4]; 36 DAA)	further results
N.N.O=[PH](O)O [(NH4)2HPO3]	d	c	b	c	9.2	58.6	7.21	5.61	51.0	28.2	8.0	57.9	9.8	48.4	26.2	39.1	34.0	34.4	
O=[PH]([O-])[O-].[K+].[K+] [Treatment K2HPO3]	d	c	b	c	12.6	43.2	5.18	4.84	68.0	4.2	10.6	44.2	9.2	51.6	26.4	38.6	33.0	26.5	
disodium hydrogen phosphite [Na2HPO3]	d	c	b	c	15.4	30.6	9.15	7.38	68.0	4.2	12.6	33.7	18.8	1.1	31.0	27.9	38.0	26.9	Effect on fungicidal attack of Botrytis on apple and banana (Botrytis cinerea; Table 3, Na2HPO3 part, Concentration 1, mandipropamid control): d; Effect on fungicidal attack of Botrytis on apple and banana (Botrytis cinerea; Table 3, Na2HPO3 part, Concentration 2, mandipropamid control): c; Effect on fungicidal attack of Botrytis on apple and banana (Botrytis cinerea; Table 3, Na2HPO3 part, Concentration 3, mandipropamid control): b; Increase of the fungal efficacy of DITHANE 60 SC compared with other phosphite salts (black sigatoka [1]; conclusion from Table 10, curative): increases the fungal efficacy of DITHANE® 60 SC the best; Increase of the fungal efficacy of sulfur compared with other phosphite salts (powdery mildew; conclusion from Table 12): increases the fungal efficacy of sulfur the best; Increase of the fungal efficacy of Bravo 72 SC compared with other phosphite salts (black sigatoka [2]; conclusion from Table 11): increases the fungal efficacy of Bravo 72 SC the best; Increase of the fungal efficacy of DITHANE 60 SC compared with other phosphite salts (black sigatoka [3]; conclusion from Table 9, preventive): increases the fungal efficacy of DITHANE® 60 SC the best; Increase of the fungal efficacy of VOLLEY 88 OL compared with other phosphite salts (black sigatoka [4]; conclusion from Table 8): increases the fungal efficacy of VOLLEY® 88 OL the best
